# Experimental data reported in patent US10927170B2, “Anti-claudin 1 monoclonal antibodies for the prevention and treatment of hepatocellular carcinoma” (INSTITUT HOSPITALIER UNIVERSITAIRE DE STRASBOURG, priority 2015, dated 2021).
# Key:
# [1] = system: HCV Jc1-infected Huh7.5.1^dif cells; assay: 186-gene HCC risk signature (nCounter, GSEA, nearest template prediction) in persistently HCV Jc1-infected Huh7.5.1^dif cells; type: cell-based, human; settings: for Reversal of HCC high-risk genes as shown by GSEA (FIG. 2A): DAA 1 nM DCV+1 μM SOF, interferon alpha-2a 10 IU/ml, erlotinib 0.1 μM, pioglitazone 1 μM, metformin 3 μM, mAb 1, 10 and 100 μg/ml
# Procedure: Huh7.5.1 cells have already been described (Zhong et al., Proc Natl Acad Sci USA, 2005, 102(26): 9294-9299). For proliferation arrest and differentiation (Huh7.5.1^dif cells), 2.5.10^4 to 3.10^4 Huh7.5.1 cells were cultured in Dulbecco's Modified Eagle Medium (DMEM) containing 1% dimethylsulfoxide (DMSO).
# Cell culture-derived HCVcc Jc1 (genotype 2a/2a) (Pietschmann et al., Proc Natl Acad Sci USA, 2006, 103(19): 7408-7413) were generated in Huh7.5.1 cells as previously described (Wakita et al., Nat Med., 2005, 11(7): 791-796). HCVcc infectivity was determined by calculating the 50% tissue culture infectious doses (TCID50) in infection experiments as previously described (Lindenbach et al., Science, 2005, 309(5734): 623-626). HCV infection was assessed by qRT-PCR of intracellular HCV RNA (Xiao et al., Gut, 2015, 64(3): 483-494) as well as by immunostaining using an HCV E2-specific AP33 antibody as previously described (Krieger et al., Hepatology. 2010, 51(4): 1144-1157).
# Liver cells were lysed in TRI-reagent (Molecular Research Center), and RNA was purified using Direct-zol RNA MiniPrep (Zymo Research) according to the manufacturer's instructions. RNA quantity and quality were assessed using NanoDrop (ThermoScientific) and Bioanalyzer 2100 ([…]). Gene expression profiling was performed using 250-500 ng total RNA by using nCounter Digital Analyzer system (NanoString).
# Cells incubated with 1% DMSO served as negative control. Three (3) days after treatment, the cells were lysed, total RNA was purified as described above, and analyzed for gene expression and intracellular viral load as described above.
# Prediction of clinical outcome based on the 186-gene signature was performed as previously reported by using the nearest template prediction algorithm, which was implemented in GenePattern (King et al., Gut, 2014, 20. pii: gutjn1-2014-307862. doi: 10.1136/gutjn1-2014-307862; Hoshida et al., PLoS ONE, 2010, 5(11), e15543). A prediction of HCC high-risk or low-risk gene signature was determined using p<0.05 and FDR<0.25. Induction/suppression of each gene set over time according to HCV Jc1 infection and uninfected control was assessed through GSEA and single sample GSEA (ssGSEA) modules implemented in GenePattern as previously described (Subramanian et al., Proc Natl Acad Sci USA, 2005, 102(43): 15545-15550; Barbie et al., Nature, 2009, 462(7269): 108-112). […] Using differentially expressed genes, network analysis was performed using canonical pathways from Ingenuity Knowledge Base repository (Ingenuity Systems Inc.).
# [2] = system: rodent models of cirrhosis-driven HCC; settings: Fuchs et al., Hepatology, 2014; cited from earlier work
# [3] = 186-gene signature, treatment from day 7 post-infection, nCounter assay
Structure (SMILES),"NES, HCC high-risk genes (GSEA) [1, 3]","NES, HCC low-risk genes (GSEA) [1, 3]",Reversal of HCC high-risk genes as shown by GSEA (FIG. 2A) [1],186-gene HCC risk signature [2],Liver fibrosis and HCC nodules [2]
C#Cc1cccc(Nc2ncnc3cc(OCCOC)c(OCCOC)cc23)c1 [erlotinib],−1.28,1.26,partially reverses,reversed,reduced liver fibrosis and HCC nodules
CN(C)C(=N)N=C(N)N [metformin],–,–,had no effect,–,–
